In patent publication US5849736A, “Isoxazoline and isoxazole fibrinogen receptor antagonists” (The DuPont Merck Pharmaceutical Company, priority 1995, dated 1998):
Structures can show the parent of a compound that is named as a salt. Where two headings read alike, the source gives them in different places.

System: platelet aggregation in human platelet rich plasma (PRP)
Assay: Platelet Aggregation Assay (platelet rich plasma, with or without esterase pretreatment)
Format: cell-based
Description: Venous blood was obtained from the arm of a healthy human donor who was drug-free and aspirin-free for at least two weeks prior to blood collection. Blood was collected into 10 mL citrated Vacutainer tubes. The blood was centrifuged for 15 minutes at 150×g at room temperature, and platelet-rich plasma (PRP) was removed. The remaining blood was centrifuged for 15 minutes at 1500×g at room temperature, and platelet-poor plasma (PPP) was removed. Samples were assayed on a aggregometer (PAP-4 Platelet Aggregation Profiler), using PPP as the blank (100% transmittance). 200 μL of PRP was added to each micro test tube, and transmittance was set to 0%. 20 μL of various agonists (ADP, collagen, arachidonate, epinephrine, thrombin) were added to each tube, and the aggregation profiles were plotted (% transmittance versus time). The results are expressed as % inhibition of agonist-induced platelet aggregation. For the IC50 evaluation, the test compounds were added at various concentrations prior to the activation of the platelets.
Ester prodrugs were preincubated (10^-3 M F.C.) with 100 IU/mL Porcine liver esterase (Sigma Chemical Co., St. Louis, Mo., #E-3128) for 2 hours at 37° C. Aliquots are then diluted in 0.1M Tris, pH 7.4, to the desired concentrations. Aliquots of 20 μl of the esterase pretreated prodrugs are added to 200 μl of human platelet rich plasma. Samples were placed in platelet profiler (aggregometer) for 8 minutes at 37° C., followed by the addition of 100 μM Adenosine Diphosphate, (Sigma Chemical Co., St. Louis, Mo., #A-6521), to induce platelet aggregation. Platelet aggregation was allowed to proceed for 5 minutes. Percent inhibition is calculated using percent aggregation in the presence of the test compound divided by percent aggregation of control, times 100. This value is subtracted from 100, yielding percent inhibition. Calculation of IC50 is performed on a Texas Instruments TI59 with an IC50 program.
Table A below sets forth the antiplatelet activity of representative compounds of the present invention. The indicated compounds were tested for their ability to inhibit platelet aggregation (using platelet rich plasma (PRP)). The IC50 value (the concentration of antagonist which inhibits platelet aggregation by 50% relative to a control lacking the antagonist) is shown. In Table 5 the IC50 values are expressed as: +++=IC50 of <10 μM; ++=IC50 of 10-50 μM; +=IC50 of 50-100 μM (μM=micromolar).

[1] = Platelet, preincubated with 100 IU/mL porcine liver esterase 2 hours at 37° C., 100 μM ADP, read-out: Platelet Aggregation Assay IC50 (with esterase)
[2] = preincubated with 100 IU/mL porcine liver esterase 2 hours at 37° C., 100 μM ADP, read-out: Platelet Aggregation Assay IC50 (with esterase)
[3] = Platelet, without esterase, read-out: Platelet Aggregation Assay IC50 (without esterase)

SMILES	IC50 [1]	also measured
COC(=O)C(CNC(=O)CC1CC(c2ccc(C(=N)N)cc2)=NO1)NS(=O)(=O)c1ccc(C(C)C)cc1 (stereo not drawn) [Example 492]	< 10 µM	–
COC(=O)C(CNC(=O)CC1CC(c2ccc(C(=N)N)cc2)=NO1)NS(=O)(=O)CCCc1ccccc1 (stereo not drawn) [Example 493]	< 10 µM	–
COC(=O)C(CNC(=O)CC1CC(c2ccc(C(=N)N)cc2)=NO1)NS(=O)(=O)c1cccnc1 (stereo not drawn) [Example 494]	< 10 µM	–
COC(=O)C(CNC(=O)CC1CC(c2ccc(C(=N)N)cc2)=NO1)NS(=O)(=O)c1ccccn1 (stereo not drawn) [Example 495]	< 10 µM	–
COC(=O)[C@H](CNC(=O)CC1CC(c2ccc(C(=N)N)cc2)=NO1)NS(=O)(=O)C=C(c1ccccc1)c1ccccc1 (stereo partly drawn) [Example 496, Methyl N^2-(2,2-diphenyl-1-ethenesulfonyl)-N^3-[3-(4-amidinophenyl)isoxazolin-5-(R,S)-ylacetyl]-(S)-2,3-diaminopropionate, trifluoroacetic acid salt]	< 10 µM	–
CCCCNS(=O)(=O)NC(CNC(=O)CC1CC(c2ccc(C(=N)N)cc2)=NO1)C(=O)OC (stereo not drawn) [Example 504]	< 10 µM	–
COC(=O)C(CNC(=O)CC1CC(c2ccc(C(=N)N)cc2)=NO1)NS(=O)(=O)NCC(C)C (stereo not drawn) [Example 505]	< 10 µM	–
COC(=O)C(CNC(=O)CC1CC(c2ccc(C(=N)N)cc2)=NO1)NS(=O)(=O)NC(C)(C)C (stereo not drawn) [Example 506]	< 10 µM	–
COC(=O)C(CNC(=O)CC1CC(c2ccc(C(=N)N)cc2)=NO1)NS(=O)(=O)NC(C)C (stereo not drawn) [Example 507]	< 10 µM	–
COC(=O)C(CNC(=O)CC1CC(c2ccc(C(=N)N)cc2)=NO1)NS(=O)(=O)NC1CCCCC1 (stereo not drawn) [Example 508]	< 10 µM	–
COC(=O)C(CNC(=O)CC1CC(c2ccc(C(=N)N)cc2)=NO1)NS(=O)(=O)Nc1ccccc1 (stereo not drawn) [Example 509]	< 10 µM	–
COC(=O)C(CNC(=O)CC1CC(c2ccc(C(=N)N)cc2)=NO1)NS(=O)(=O)NCc1ccccc1 (stereo not drawn) [Example 510]	< 10 µM	–
COC(=O)[C@H](CNC(=O)CC1CC(c2ccc(C(=N)N)cc2)=NO1)NS(=O)(=O)N(C)C (stereo partly drawn) [Example 511, Methyl N^2-(N,N-dimethylsulfamoyl)-N^3-[3-(4-amidinophenyl)isoxazolin-5-(R,S)-ylacetyl]-(S)-2,3-diaminopropionate, trifluoroacetic acid salt]	< 10 µM	–
COC(=O)[C@H](CNC(=O)CC1CC(c2ccc(C(=N)N)cc2F)=NO1)NS(=O)(=O)c1cccc(C)c1 (stereo partly drawn) [Example 512, Methyl N^2-(m-toluenesulfonyl)-N^3-[3-(4-amidino-2-fluorophenyl)isoxazolin-5-ylacetyl]-S-2,3-diaminopropionate hydrochloric acid salt]	< 10 µM	–
CCCCOC(=O)N[C@@H](CNC(=O)CC1CC(c2ccc(C(=N)N)cn2)=NO1)C(=O)OC (stereo partly drawn) [Example 513, Methyl N^2-(n-butyloxycarbonyl)-N^3-[3-(3-amidinopyrid-6-yl)isoxazolin-5-ylacetyl]-S-2,3-diaminopropionate hydrochloric acid salt]	< 10 µM	–
COC(=O)[C@H](CNC(=O)CC1CC(c2ccc(C(=N)N)cn2)=NO1)NS(=O)(=O)c1cccc(C)c1 (stereo partly drawn) [Example 514, Methyl N^2-(m-toluenesulfonyl)-N^3-3-(3-amidinopyrid-6-yl)isoxazolin-5-ylacetyl]-S-2,3-diaminopropionate hydrochloric acid salt]	< 10 µM	–
CCCCOC(=O)N[C@@H](CNC(=O)CC1CC(c2ccc(C(=N)N)nc2)=NO1)C(=O)OC (stereo partly drawn) [Example 515, Methyl N^2-(n-butyloxycarbonyl)-N^3-[3-(2-amidinopyrid-5-yl)isoxazolin-5-ylacetyl]-S-2,3-diaminopropionate hydrochloric acid salt]	< 10 µM	–
COC(=O)[C@H](CNC(=O)CC1CC(c2ccc(C(=N)N)nc2)=NO1)NS(=O)(=O)c1cccc(C)c1 (stereo partly drawn) [Example 516, Methyl N^2-(m-toluenesulfonyl)-N^3-[3-(2-amidinopyrid-5-yl)isoxazolin-5-ylacetyl]-S-2,3-diaminopropionate hydrochloric acid salt]	< 10 µM	–
COC(=O)[C@H](CNC(=O)CC1CC(c2ccc(C(=N)N)cc2)=NO1)NC(=O)Nc1ccccc1 (stereo partly drawn) [Example 517]	–	IC50 [2]: < 10 µM
COC(=O)C(CNC(=O)CC1CC(c2ccc(C(=N)N)cc2)=NO1)NC(=O)Nc1ccc(F)cc1 (stereo not drawn) [Example 518]	< 10 µM	–
COC(=O)C(CNC(=O)CC1CC(c2ccc(C(=N)N)cc2)=NO1)NC(=O)Nc1cccc2ccccc12 (stereo not drawn) [Example 519]	< 10 µM	–
COC(=O)C(CNC(=O)CC1CC(c2ccc(C(=N)N)cc2)=NO1)NC(=O)NCc1ccccc1 (stereo not drawn) [Example 520]	< 10 µM	–
CCc1ccc(C(=O)NC(CNC(=O)CC2CC(c3ccc(C(=N)N)cc3)=NO2)C(=O)OC)cc1 (stereo not drawn) [Example 522]	< 10 µM	–
COC(=O)C(CNC(=O)CC1CC(c2ccc(C(=N)N)cc2)=NO1)NC(=O)c1ccc(-c2ccccc2)cc1 (stereo not drawn) [Example 523]	< 10 µM	–

SMILES	IC50 [1]	also measured
COC(=O)C(CNC(=O)CC1CC(c2ccc(C(=N)N)cc2)=NO1)NC(=O)c1ccc2ccccc2c1 (stereo not drawn) [Example 524]	< 10 µM	–
COC(=O)C(CNC(=O)CC1CC(c2ccc(C(=N)N)cc2)=NO1)NC(=O)OCc1ccccc1Cl (stereo not drawn) [Example 525]	< 10 µM	–
N=C(N)c1ccc(C2=NOC(CC(=O)NCC(NC(=O)OCc3ccccc3Cl)C(=O)O)C2)cc1 (stereo not drawn) [Example 526]	–	IC50 [3]: < 10 µM
COC(=O)C(CNC(=O)CC1CC(c2ccc(C(=N)N)cc2)=NO1)NC(=O)OCc1ccccc1Br (stereo not drawn) [Example 527]	< 10 µM	–
N=C(N)c1ccc(C2=NOC(CC(=O)NCC(NC(=O)OCc3ccccc3Br)C(=O)O)C2)cc1 (stereo not drawn) [Example 528]	–	IC50 [3]: < 10 µM
CCCCCCOC(=O)NC(CNC(=O)CC1CC(c2ccc(C(=N)N)cc2)=NO1)C(=O)OC (stereo not drawn) [Example 529]	< 10 µM	–
CCCCCCOC(=O)NC(CNC(=O)CC1CC(c2ccc(C(=N)N)cc2)=NO1)C(=O)O (stereo not drawn) [Example 530]	–	IC50 [3]: < 10 µM
COC(=O)C(CNC(=O)CC1CC(c2ccc(C(=N)N)cc2)=NO1)NC(=O)OCC(C)C (stereo not drawn) [Example 531]	< 10 µM	–
CC(C)COC(=O)NC(CNC(=O)CC1CC(c2ccc(C(=N)N)cc2)=NO1)C(=O)O (stereo not drawn) [Example 532]	–	IC50 [3]: < 10 µM
COC(=O)C(CNC(=O)CC1CC(c2ccc(C(=N)N)cc2)=NO1)NC(=O)OCCC1CC1 (stereo not drawn) [Example 533]	< 10 µM	–
N=C(N)c1ccc(C2=NOC(CC(=O)NCC(NC(=O)OCCC3CC3)C(=O)O)C2)cc1 (stereo not drawn) [Example 534]	–	IC50 [3]: < 10 µM
COC(=O)C(CNC(=O)CC1CC(c2ccc(C(=N)N)cc2)=NO1)NC(=O)OCCC1CCCC1 (stereo not drawn) [Example 535]	< 10 µM	–
COC(=O)C(CNC(=O)CC1CC(c2ccc(C(=N)N)cc2)=NO1)NC(=O)OCCCC(F)(F)F (stereo not drawn) [Example 537]	< 10 µM	–
N=C(N)c1ccc(C2=NOC(CC(=O)NCC(NC(=O)OCCCC(F)(F)F)C(=O)O)C2)cc1 (stereo not drawn) [Example 538]	–	IC50 [3]: < 10 µM
CCCS(=O)(=O)NC(CNC(=O)CC1CC(c2ccc(C(=N)N)cc2)=NO1)C(=O)OC (stereo not drawn) [Example 539]	–	IC50 [2]: < 10 µM
Cc1ccccc1C(=O)N[C@@H](CNC(=O)CC1CC(c2ccc(C(=N)N)cc2)=NO1)C(=O)O (stereo partly drawn) [Example 540, N^2-methylphenylcarbonyl-N^3-[3-(4-amidinophenyl)isoxazolin-5-(R,S)-ylacetyl]-(S)-2,3-diaminopropionicacid]	< 10 µM	–
COC(=O)C(CNC(=O)CC1CC(c2ccc(C(=N)N)cc2)=NO1)NS(=O)(=O)c1cc(C)c(Cl)cc1C (stereo not drawn) [Example 541]	< 10 µM	–
COC(=O)C(CNC(=O)CC1CC(c2ccc(C(=N)N)cc2)=NO1)NS(=O)(=O)c1cccc(Cl)c1Cl (stereo not drawn) [Example 542]	< 10 µM	–
COC(=O)C(CNC(=O)CC1CC(c2ccc(C(=N)N)cc2)=NO1)NS(=O)(=O)c1ccccc1Br (stereo not drawn) [Example 543]	< 10 µM	–
COC(=O)C(CNC(=O)CC1CC(c2ccc(C(=N)N)cc2)=NO1)NS(=O)(=O)c1cccc(Br)c1 (stereo not drawn) [Example 544]	< 10 µM	–
COC(=O)C(CNC(=O)CC1CC(c2ccc(C(=N)N)cc2)=NO1)NS(=O)(=O)c1ccc(Br)cc1 (stereo not drawn) [Example 545]	< 10 µM	–
COC(=O)C(CNC(=O)CC1CC(c2ccc(C(=N)N)cc2)=NO1)NS(=O)(=O)c1ccc(-c2ccccc2)cc1 (stereo not drawn) [Example 546]	< 10 µM	–
COC(=O)C(CNC(=O)CC1CC(c2ccc(C(=N)N)cc2)=NO1)NS(=O)(=O)c1c(C)nn(C)c1Cl (stereo not drawn) [Example 547]	< 10 µM	–
COC(=O)C(CNC(=O)CC1CC(c2ccc(C(=N)N)cc2)=NO1)NS(=O)(=O)c1sccc1Br (stereo not drawn) [Example 548]	< 10 µM	–
